Among the data in patent US9963432B2, “Beta-amino-isoquinolinyl amide compounds” (Aerie Pharmaceuticals, Inc., priority 2016, dated 2018) are Ki and IC50 values, retold here.

The target of one test is ROCK2 (Homo sapiens, UniProt O75116). The experiment in a line: ROCK Kinase Assay (Kinase-Glo luminescent). Type of test: biochemical. As to the method:
All compounds were initially prepared as 10 mM stocks in anhydrous dimethylsulfoxide (DMSO). […] Test compounds were then serially diluted 1:3 in DMSO for a 10-point concentration response and further diluted in the assay buffer bringing all compound concentrations to 4× final concentration in 10% DMSO. […] A 10 μL aliquot of compound from each well of the intermediate dilution plate and 10 μL of a 4× stock solution containing ATP (5 μM) and acceptor substrate (20 μM RSK2 peptide […]) were added to all wells. […] Reactions were thoroughly mixed manually, covered and allowed to incubate at room temperature for 180 min. Protein kinase activity was quantitated using Promega's Kinase-Glo™ luminescent Kinase Assay Kit according to the manufacturer's directions. ATP concentrations remaining in Test wells following the termination of the enzymatic reaction were compared against control wells containing equivalent amounts of DMSO containing no inhibitor (CTRL). […] Percent of Control (POC) values were determined for each concentration of compound tested according to the equation: POC=((Test well value−BKG)/(CTRL−BKG))*100
IC50 values were calculated using the following 4-parameter logistic curve-fitting algorithm: f(x)=(A+((B−A)/(1+((x/C)^D))))
IC50 values were converted to Ki values using the Cheng-Prusoff Equation: Ki=IC50/(1+([ATP]/Km ATP])).
In general terms: Kinase-Glo reads ATP consumption through a luciferase reaction.

Test [1] relates to Immortalized Human Trabecular Meshwork cells (TM-1). The experiment in a line: PTM-HTM Assay: human trabecular meshwork cells, focal adhesions. Type of test: cell-based. The following applies: TM1, TM-1 cells, anti-paxillin stain, total area of focal adhesions, percent of control. As to the method: (§1) Porcine Trabecular Meshwork cells (PTM) were isolated from freshly obtained enucleated porcine eyes following a procedure by Rao et al.^1 Immortalized Human Trabecular Meshwork cells (TM-1) were obtained through a kind gift from Donna Peters in the Department of Ophthalmology and Visual Sciences at the University of Wisconsin. Cells were plated onto fibronectin coated glass-bottom 96-well plates and allowed to attach overnight. Media was removed and replaced with test compound in media with 1% fetal bovine serum and incubated for various times. After incubation, cells were formaldehyde fixed, triton solubilized, and stained. PTM cells were stained with Alexa Fluor®488 phalloidin (F-actin) and Hoechst 33342 (nuclei). TM-1 cells were stained with anti-paxillin followed by Alexa Fluor®488 goat-anti-mouse IgG (focal adhesions) and Hoechst 33342 (nuclei). All staining reagents were obtained through Invitrogen. Images were collected on an INCell 2200 imager with a 20× objective. The actin fiber length and total area of focal adhesions were analyzed using custom algorithms developed in the INCell Developer Toolbox, v1.9.3. Data collected were converted to percent of control (untreated cells). Curves were fit to data in GraphPad Prizm4 using sigmoidal dose-response and constraining top and bottom to 100% and 0%, respectively.

Test [2] concerns Porcine Trabecular Meshwork cells (PTM). The experiment in a line: PTM-HTM Assay: porcine trabecular meshwork cells, actin fibers. Type of test: cell-based. As to conditions: Sus scrofa, phalloidin stain, actin fiber length, percent of control. The protocol: as §1
Where [3] appears, read: IC50 converted to Ki by Cheng-Prusoff, ATP 5 μM, ROCK2 1 nM, 180 min, read-out: ROCK2 Ki.

Molecules are shown by their SMILES. Where two headings read alike, the source gives them in different places.

Sequence of ROCK2 (O75116 whole entry, species assumed): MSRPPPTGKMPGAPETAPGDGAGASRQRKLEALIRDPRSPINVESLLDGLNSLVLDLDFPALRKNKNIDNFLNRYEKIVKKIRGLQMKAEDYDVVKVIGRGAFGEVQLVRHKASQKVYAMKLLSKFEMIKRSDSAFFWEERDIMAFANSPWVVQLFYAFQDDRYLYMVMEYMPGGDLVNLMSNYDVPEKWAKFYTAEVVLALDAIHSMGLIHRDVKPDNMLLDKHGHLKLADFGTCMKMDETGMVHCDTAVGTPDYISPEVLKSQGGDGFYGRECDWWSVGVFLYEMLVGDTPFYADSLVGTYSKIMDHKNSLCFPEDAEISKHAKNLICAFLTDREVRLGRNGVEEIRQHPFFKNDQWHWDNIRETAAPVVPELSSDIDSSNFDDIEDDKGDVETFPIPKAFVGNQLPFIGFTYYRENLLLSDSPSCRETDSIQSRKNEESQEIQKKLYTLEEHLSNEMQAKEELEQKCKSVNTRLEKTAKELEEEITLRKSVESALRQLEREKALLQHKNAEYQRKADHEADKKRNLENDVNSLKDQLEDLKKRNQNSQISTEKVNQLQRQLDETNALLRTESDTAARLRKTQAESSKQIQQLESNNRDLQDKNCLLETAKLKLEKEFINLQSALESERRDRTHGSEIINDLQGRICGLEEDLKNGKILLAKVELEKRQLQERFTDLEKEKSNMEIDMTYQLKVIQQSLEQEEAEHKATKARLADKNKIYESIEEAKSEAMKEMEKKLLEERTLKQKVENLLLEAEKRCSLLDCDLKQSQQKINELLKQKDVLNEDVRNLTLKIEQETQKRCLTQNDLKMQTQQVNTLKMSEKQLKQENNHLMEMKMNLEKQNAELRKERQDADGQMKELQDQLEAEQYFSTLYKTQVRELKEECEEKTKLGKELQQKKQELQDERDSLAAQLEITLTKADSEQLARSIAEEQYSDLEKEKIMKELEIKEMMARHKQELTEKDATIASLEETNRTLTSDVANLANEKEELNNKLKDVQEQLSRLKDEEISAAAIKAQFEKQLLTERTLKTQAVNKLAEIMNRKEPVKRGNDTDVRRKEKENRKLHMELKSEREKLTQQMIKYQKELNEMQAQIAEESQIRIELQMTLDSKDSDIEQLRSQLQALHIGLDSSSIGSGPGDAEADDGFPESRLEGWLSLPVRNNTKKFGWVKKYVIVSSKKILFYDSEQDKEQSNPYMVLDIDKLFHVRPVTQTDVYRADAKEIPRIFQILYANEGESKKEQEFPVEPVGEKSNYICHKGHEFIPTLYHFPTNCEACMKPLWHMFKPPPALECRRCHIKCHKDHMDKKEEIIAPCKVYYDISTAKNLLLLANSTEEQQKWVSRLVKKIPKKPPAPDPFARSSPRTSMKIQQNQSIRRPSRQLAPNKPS

As usually defined, the Ki is a measure of affinity in units of concentration, obtained from inhibition or displacement. The term IC50 denotes the concentration needed to halve the response being measured. For the compound `NC[C@@H](C(=O)Nc1ccc2cnccc2c1)c1ccccc1` [3 (S)], the Ki on ROCK2 (setting [3]) is 0.0004 µM. Also, the IC50 in test [1] is 0.041 µM.

As for `NC[C@H](C(=O)Nc1ccc2cnccc2c1)c1ccccc1` [4 (R)], the Ki on ROCK2 (setting [3]) is 0.016 µM.

`NCC(C(=O)Nc1ccc2cnccc2c1)c1ccccc1` (centres unmarked) [Compound 2]: the Ki on ROCK2 (setting [3]) amounted to 0.0008 µM.

`NCC(C(=O)Nc1ccc2c(O)nccc2c1)c1ccccc1` (centres unmarked) [Compound 5]: the inhibition constant Ki at ROCK2 (setting [3]) was 0.0022 µM. The IC50 was 0.045 µM in test [2] and 0.266 µM in test [1].

In the case of `NCC(C(=O)Nc1ccc2cnccc2c1)c1ccccc1F` (centres unmarked) [Compound 6], the Ki at ROCK2 (setting [3]) worked out at 0.001 µM. In addition, the half-maximal inhibitory concentration (IC50) in test [2] worked out at 0.26 µM; in test [1], 0.139 µM.

For the compound `NCC(C(=O)Nc1ccc2cnccc2c1)c1cccc(F)c1` (centres unmarked) [Compound 7], the Ki on ROCK2 (setting [3]) was 0.001 µM. The IC50 in test [2] was determined as 0.298 µM; in test [1] it was 0.201 µM.

Take `NCC(C(=O)Nc1ccc2cnccc2c1)c1ccc(F)cc1` (centres unmarked) [Compound 8]: the Ki at ROCK2 (setting [3]) was 0.001 µM. For the same compound, the IC50 in test [2] is 0.175 µM; in test [1], 0.102 µM.

On to `NCC(C(=O)Nc1ccc2cnccc2c1)c1ccccc1Cl` (centres unmarked) [Compound 9], for which the Ki on ROCK2 (setting [3]) was found to be 0.0013 µM. The IC50 in test [2] came to 0.245 µM; in test [1], 0.192 µM.

For `NCC(C(=O)Nc1ccc2cnccc2c1)c1cccc(Cl)c1` (centres unmarked) [Compound 10], the Ki at ROCK2 (setting [3]) turned out to be 0.0009 µM. In addition, the values for the IC50 in test [2] and in test [1] were 0.455 µM and 0.383 µM, respectively.

Take `NCC(C(=O)Nc1ccc2cnccc2c1)c1ccc(Cl)cc1` (centres unmarked) [Compound 11]: the Ki on ROCK2 (setting [3]) was determined as 0.0004 µM. The IC50 in test [2] was found to be 0.129 µM; in test [1], 0.064 µM.

Regarding `NCC(C(=O)Nc1ccc2cnccc2c1)c1ccc(Cl)cc1Cl` (centres unmarked) [Compound 12], at ROCK2 (setting [3]), the Ki came out at 0.0008 µM. Also, the concentration for half-maximal inhibition (IC50) was found to be 0.214 µM in test [2] and 0.208 µM in test [1].

`Cc1ccccc1C(CN)C(=O)Nc1ccc2cnccc2c1` (centres unmarked) [Compound 13]: the Ki at ROCK2 (setting [3]) turned out to be 0.001 µM. Also, the IC50 in test [2] is 0.2 µM; in test [1], 0.09 µM.

Take `Cc1cccc(C(CN)C(=O)Nc2ccc3cnccc3c2)c1` (centres unmarked) [Compound 14]: at ROCK2 (setting [3]), the Ki came out at 0.0033 µM. The IC50 in test [2] amounted to 0.511 µM; in test [1], 0.324 µM.

In the case of `Cc1ccc(C(CN)C(=O)Nc2ccc3cnccc3c2)cc1` (centres unmarked) [Compound 15], the Ki at ROCK2 (setting [3]) came out at 0.0004 µM. Besides, the IC50 in test [2] was found to be 0.084 µM; in test [1], 0.039 µM.

As for `NCC(C(=O)Nc1ccc2cnccc2c1)c1cccc(O)c1` (centres unmarked) [Compound 16], the Ki at ROCK2 (setting [3]) worked out at 0.0013 µM. Further, the IC50 was 0.459 µM in test [2] and 1.72 µM in test [1].

Turning to `NCC(C(=O)Nc1ccc2cnccc2c1)c1ccc(O)cc1` (centres unmarked) [Compound 17], the Ki on ROCK2 (setting [3]) was determined as 0.0006 µM. In addition, the IC50 in test [2] was 1.02 µM; in test [1], 0.193 µM.

On to `NCC(C(=O)Nc1ccc2cnccc2c1)c1ccc(O)c(O)c1` (centres unmarked) [Compound 18], for which, on ROCK2 (setting [3]), the Ki came to 0.0055 µM. The figures for the IC50 in test [2] and in test [1] were 5.15 µM and 11 µM, respectively.

As to `COc1cccc(C(CN)C(=O)Nc2ccc3cnccc3c2)c1` (centres unmarked) [Compound 19], the Ki at ROCK2 (setting [3]) was 0.002 µM. In addition, the IC50 in test [2] came to 0.448 µM; in test [1], 0.214 µM.

For the compound `COc1ccc(C(CN)C(=O)Nc2ccc3cnccc3c2)cc1` (centres unmarked) [Compound 20], on ROCK2 (setting [3]), the Ki amounted to 0.0013 µM. Besides, the values for the IC50 in test [2] and in test [1] were 0.67 µM and 0.111 µM, respectively.

With `NCC(C(=O)Nc1ccc2cnccc2c1)c1cccc(C(F)(F)F)c1` (centres unmarked) [Compound 21], the Ki at ROCK2 (setting [3]) worked out at 0.0027 µM. Also, the IC50 was 0.596 µM in test [2] and 0.475 µM in test [1].

In the case of `NCC(C(=O)Nc1ccc2cnccc2c1)c1ccc(C(F)(F)F)cc1` (centres unmarked) [Compound 22], the inhibitory constant (Ki) at ROCK2 (setting [3]) is 0.0018 µM. For the same compound, the figures for the IC50 in test [2] and in test [1] were 0.152 µM and 0.493 µM, respectively.

On to `NCC(C(=O)Nc1ccc2cnccc2c1)c1cccc(CO)c1` (centres unmarked) [Compound 23], for which, at ROCK2 (setting [3]), the Ki stood at 0.003 µM. Further, the IC50 in test [2] worked out at 1.38 µM; in test [1] it was 0.248 µM.

`NCC(C(=O)Nc1ccc2cnccc2c1)c1ccc(CO)cc1` (centres unmarked) [Compound 24] yielded a Ki at ROCK2 of 0.0007 µM.
